Reference: patent US8846750B2, “Pharmaceutical and food compositions for preventing or treating diabetes or obesity” (Korea Ocean Research and Development Institute, priority 2010, dated 2014)

Columns and labels:
PTP-1b = target: T1, PTP-1b (Homo sapiens, UniProt P18031); test: Selectivity for protein tyrosine phosphatases: PTP-1b; type: biochemical; settings: at a concentration of 0.2 µM (IC50); read-out: inhibition rate against PTP-1b
T1 construct: purchased Bioneer, Korea
T1 sequence (P18031 1-435): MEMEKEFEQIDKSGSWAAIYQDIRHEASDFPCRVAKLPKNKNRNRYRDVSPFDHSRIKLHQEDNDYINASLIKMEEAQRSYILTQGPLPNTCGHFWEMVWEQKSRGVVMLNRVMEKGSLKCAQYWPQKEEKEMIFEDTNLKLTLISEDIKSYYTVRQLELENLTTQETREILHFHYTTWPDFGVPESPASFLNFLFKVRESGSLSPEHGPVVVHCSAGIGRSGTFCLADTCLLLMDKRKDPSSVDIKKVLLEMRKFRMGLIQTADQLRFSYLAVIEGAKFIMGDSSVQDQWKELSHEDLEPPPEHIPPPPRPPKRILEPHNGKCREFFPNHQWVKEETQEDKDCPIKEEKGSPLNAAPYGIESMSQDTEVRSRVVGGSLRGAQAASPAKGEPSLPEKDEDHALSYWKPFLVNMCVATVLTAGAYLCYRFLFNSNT
Method: In order to examine the selectivity of sodium lobarate for protein tyrosine phosphatases, the inhibitory activities of sodium lobarate against PTP-1b, PTPN2, PTPN5, PTPN6, PTPN7 and PTPN13 were examined by spectroscopically measuring the activities of the enzymes.
Specifically, to 0.5 mg/Ml of PTP-1b, PTPN2, PTPN5, PTPN6, PTPN7 or PTPN13 (Bioneer, Korea) in protein tyrosine phosphatase buffer (20 mM Tris-Hcl, pH 8.0, 0.75 mM NaCl, 0.5 mM EDTA, 5 mM β-mercaptoethanol, 50% glycerol), 0, 50, 100 or 200 nM sodium lobarate and the substrate [pTyr1146] insulin receptor (1142-1153, Sigma, USA) were added. Then, each of the mixtures was allowed to react at room temperature for 10-30 minutes, and then malachite green-molybdate dye solution (Sigma, USA) was added thereto and reacted at room temperature for 10 minutes. After completion of the reaction with the substrate, the absorbance at 620 nm was measured.
(§1) In order to examine the selectivity of Lobarin for protein tyrosine phosphatases, the inhibitory activities of Lobarin against PTP-1b, PTPN2, PTPN5, PTPN6, PTPN7 and PTPN13 were examined by spectroscopically measuring the activities of the enzymes.
Specifically, to 0.5 mg/Ml of PTP-1b, PTPN2, PTPN5, PTPN6, PTPN7 or PTPN13 (Bioneer, Korea) in protein tyrosine phosphatase buffer (20 mM Tris-Hcl, pH 8.0, 0.75 mM NaCl, 0.5 mM EDTA, 5 mM β-mercaptoethanol, 50% glycerol), 0, 50, 100 or 200 nM Lobarin and the substrate [pTyr1146] insulin receptor (1142-1153, Sigma, USA) were added. […] After completion of the reaction with the substrate, the absorbance at 620 nm was measured.
as §1, with “Lobarstin” for “Lobarin”, “enzymes. […] After completion of the reaction with the substrate, the absorbance at 620 nm was measured.” for “enzymes.”

[1] = tested on: db/db mice (type 2 diabetic model animals); test: Intraperitoneal glucose tolerance test (IPGTT) 28 days after intraperitoneal administration; type: in vivo; settings: 10 mg/kg i.p. for 28 days; for blood glucose level after injection of glucose (IPGTT): fasted 16 hours; for course of blood glucose level in IPGTT: versus control group
Method: An intraperitoneal glucose tolerance test (IPGTT) in the animal model of sodium lobarate was performed in the following manner.
To 7-week-old male db/db mice (type 2 diabetic model animals, C57/BLKS/J-db/db, the Korea Research Institute of Bioscience and Biotechnology), physiological saline for a control group and 10 mg/kg of sodium lobarate for a test group was injected, respectively, intraperitoneally every day for 28 days. Then, the animals were fasted for 16 hours without administering physiological saline or sodium lobarate, after which glucose (500 mg/Ml; injection volume of […]) was injected intraperitoneally into the animals. 0, 15, 30, 60, 90 and 120 min after injection of glucose, blood was sampled from the tail vein, and the changes in the blood glucose levels of the samples were measured. […]
(§2) To 7-week-old male db/db mice (type 2 diabetic model animals, C57/BLKS/J-db/db, the Korea Research Institute of Bioscience and Biotechnology), 20% DMSO for a control group and 10 mg/kg of Lobarin for a test group was injected, respectively, intraperitoneally every day for 28 days. Then, the animals were fasted for 16 hours without administering 20% DMSO or Lobarin for each group, after which glucose (500 mg/Ml; injection volume of 200 μl) was injected intraperitoneally into the animals. 0, 15, 30, 60, 90 and 120 min after injection of glucose, blood was sampled from the tail vein, and the changes in the blood glucose levels of the samples were measured.
as §2, with “Lobarstin” for “Lobarin”, “physiological saline and Lobarstin,” for “20% DMSO or Lobarin for each group,”

Row | inhibition at 0.2 µM (PTP-1b) | Structure (SMILES) | blood glucose level after injection of glucose (IPGTT) ([1]; 0 min) | course of blood glucose level in IPGTT [1] | blood glucose level after injection of glucose (IPGTT) ([1]; 15 min) | blood glucose level after injection of glucose (IPGTT) ([1]; 30 min) | blood glucose level after injection of glucose (IPGTT) ([1]; 60 min) | blood glucose level after injection of glucose (IPGTT) ([1]; 90 min) | blood glucose level after injection of glucose (IPGTT) ([1]; 120 min)
1 | 52.2% | CCCCCc1c(Oc2cc(OC)cc3c2C(=O)OC3(O)CCCC)c(O)cc(O)c1C(=O)O (stereo not drawn) [Lobarin] | 153 mg/dL | a low increase and a fast decrease in the blood glucose level | 358 mg/dL | 436 mg/dL | 390 mg/dL | 335 mg/dL | 290 mg/dL
2 | 48% | CCC/C=C1/OC(=O)c2c(Oc3c(O)cc(O)c(C(=O)O)c3CCCCC)cc(OC)cc21 [Lobarstin] | 152 mg/dL | a low increase and a fast decrease in the blood glucose level | 229 mg/dL | 307 mg/dL | 205 mg/dL | 162 mg/dL | 147 mg/dL
3 | 50% | CCCCCc1c2c(cc(O)c1C(=O)[O-])OC(=O)c1c(cc(OC)cc1C(=O)CCCC)O2.[Na+] [sodium lobarate] | 153 mg/dL | a low increase and a fast decrease in the blood glucose level | 291 mg/dL | 361 mg/dL | 385 mg/dL | 335 mg/dL | 290 mg/dL
